The record followed here is patent US11312705B2, “Heteroaryl[4,3-C]pyrimidine-5-amine derivative, preparation method therefor, and medical uses thereof” (Jiangsu Hengrui Medicine Co., Ltd., priority 2017, dated 2022).

A short description of series [1]: Brain permeability in mice (plasma/brain concentration plus equilibrium dialysis). The conditions noted are these: mouse, not told, po; female C57 mice, 20 mg/kg intragastric, 0.5 h after administration; read-out: Blood-brain permeability index (Kp-unbound). It is filed as in vivo. As for the experimental part:
The brain permeability of the compounds of the present invention in mice was determined by the following experimental method:
Four female C57 mice were maintained on a 12 hours light/12 hours dark cycle, in a constant temperature of 24±3° C. and a humidity of 50-60%, and had free access to food and water. The compounds were administered intragastrically to the mice after fasting overnight. The administration dosage was 20 mg/kg. The drug administration group was sacrificed after blood collection at 0.5 h after drug administration (collected blood volume: 0.5 ml). The blood sample was stored in heparinized tubes, and centrifuged for 10 minutes at 3500 rpm to separate the plasma, which was marked as plasma 1 and stored at −80° C. […]
The equilibrium dialysis tube of RED Device Inserts was inserted into a 96-well plate. […] The chromatographic peak area ratios of the total drug (plasma chamber) and the free drug (buffer chamber) to the internal standard were determined directly by the LC/MS/MS method established above respectively, and the free percent (fuplasma%) was calculated. […]
5.1 The drug concentrations in plasma 1 and brain tissue 1 of mice 0.5 h after drug administration were determined by the established LC/MS/MS method respectively, which were the total concentration (Ctotal, p and Ctotal, b); […]

For series [2], the target named is adenosine A2a receptor (A2aR) (Homo sapiens (Human), UniProt P29274). The series can be described thus: Inhibition of adenosine A2a receptor cAMP signaling pathway (HTRF cAMP, CHO-K1/A2aR cells). It is filed as cell-based. The essentials: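 CHO-K1 cells expressing human A2aR, preincubated 30 min at room temperature with compound (10000–0.001024 nM final) in HEPES/BSA buffer with rolipram and adenosine deaminase, then stimulated 30 min with […] (20 nM final). Intracellular cAMP read by HTRF after 1 h lysis/detection.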
adenosine A2a receptor (A2aR), sequence (P29274 whole entry): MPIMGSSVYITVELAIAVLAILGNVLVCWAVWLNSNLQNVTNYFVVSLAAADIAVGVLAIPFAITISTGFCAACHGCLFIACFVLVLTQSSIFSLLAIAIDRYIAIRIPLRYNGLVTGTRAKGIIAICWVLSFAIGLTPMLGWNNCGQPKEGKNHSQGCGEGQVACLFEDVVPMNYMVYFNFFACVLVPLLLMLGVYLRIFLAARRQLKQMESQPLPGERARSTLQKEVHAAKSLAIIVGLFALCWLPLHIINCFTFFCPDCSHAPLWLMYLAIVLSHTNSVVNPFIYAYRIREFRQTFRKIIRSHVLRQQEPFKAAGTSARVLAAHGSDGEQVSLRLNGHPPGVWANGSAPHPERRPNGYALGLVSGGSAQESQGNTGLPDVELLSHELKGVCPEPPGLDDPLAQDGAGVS

`Cc1cc(-c2c(-c3ccc(F)cc3F)nc(N)n3cnnc23)cc(C(F)F)n1` [Example 20, 8-(2-(Difluoromethyl)-6-methylpyridin-4-yl)-7-(2,4-difluorophenyl)-[1,2,4]triazolo[4,3-c]pyrimidin-5-amine]: the Kp at 0.5 h in series [1] came out at 0.015. The IC50 in series [2] (Table 1, ethyl carbazole 20 nM) was 2.33 nM; in series [2] (Table 2, ethyl carbazole 20 nM), 2.33 nM; in series [2] (Table 3, ethyl carbazole 20 nM), 2.33 nM.

On to `Cc1cc(-c2c(-c3ccc(F)cc3F)nc(N)n3cnnc23)cc(C(F)(F)F)n1` [Example 18, 7-(2,4-Difluorophenyl)-8-(2-methyl-6-(trifluoromethyl)pyridin-4-yl)-[1,2,4]triazolo[4,3-c]pyrimidin-5-amine], for which the Kp at 0.5 h in series [1] is 0.01. In addition, the IC50 worked out at 3.96 nM in series [2] (Table 1, ethyl carbazole 20 nM); 3.96 nM in series [2] (Table 2, ethyl carbazole 20 nM); 0.75 nM in series [2] (Table 3, ethyl carbazole 20 nM).
